Measured values published in patent US20260055112A1, “CRYSTALLINE FORM OF PYRAZOLOPYRIMIDINE ESTER COMPOUND AND METHODS OF PREPARING THE SAME” (Shanghai Maius Pharmaceutical Co. Ltd., priority 2022, published 2026).
Entries after “also recorded” stand apart in the source; their conditions may differ.

Key:
[1] = Stability study: change in purity after 10 days storage under forced degradation conditions; format: physicochemical; settings: for Purity, 25° C. + 92.5% RH (Day 10): stored at 25° C. and 92.5% RH for 10 days; for Purity (Day 10): stored for 10 days
Protocol: Samples of the amorphous and crystalline (Form I) compound of formula (I) were stored under different conditions: at 40° C. for 10 days; […]; at 25° C. and 92.5% RH (relative humidity) for 10 days; at 60° C. and 75% RH for 10 days; in light for 10 days; and at room temperature for 10 days.

[2] = among the pyrazolopyrimidine ester prodrugs of CN 202111131059.0; cited from earlier work

In the case of C=CC(=O)N1CCC[C@@H](n2nc(-c3ccc(Oc4ccccc4)cc3)c3c(NC(=O)OCCCC)ncnc32)C1 [Amorphous, 1-[(3R)-3-[4-(butoxycarbonyl)-amino-3-(4-phenoxyphenyl)-1H-pyrazolo[3,4-d]pyrimidin-1-yl]-1-piperidinyl]-2-propen-1-one], the “Stability in general (in words)” value ([1]; amorphous product, heat and moisture) was “poor stability”, the “Degradation observed (in words)” value ([1]; storage 10 days at 40° C.) was “Significant degradation” and the “Degradation observed (in words)” value ([1]; storage 10 days at 40° C., listed as amorphous sample) was “Noticeable degradation”. For the same compound, the “Degradation observed (in words)” value ([1]; storage 10 days at 60° C. and 75% RH) was “almost complete degradation”, the “Purity, 25° C. + 92.5% RH (Day 10)” value [1] was 98.00% and the “Purity (Day 10)” value [1] was 0%.

With C=CC(=O)N1CCC[C@@H](n2nc(-c3ccc(Oc4ccccc4)cc3)c3c(NC(=O)OCCCC)ncnc32)C1 [Form I, 1-[(3R)-3-[4-(butoxycarbonyl)-amino-3-(4-phenoxyphenyl)-1H-pyrazolo[3,4-d]pyrimidin-1-yl]-1-piperidinyl]-2-propen-1-one] the “Stability (in words)” value ([1]; 10 days of storage at room temperature and in light) was “highly stable; also recorded: very stable”, the “Degree of degradation compared with the amorphous form” value ([1]; several forced degradation conditions) was “lower degrees of degradation than the amorphous compound; also recorded: lower degree of degradation than the amorphous form” and the “Purity, 25° C. + 92.5% RH (Day 10)” value [1] was 98.63%. For the same compound, the “Purity (Day 10)” value [1] was 2.19%.

In the case of C=CC(=O)N1CCC[C@@H](n2nc(-c3ccc(Oc4ccccc4)cc3)c3c(NC(=O)OCCCC)ncnc32)C1 [formula (I), 1-[(3R)-3-[4-(butoxycarbonyl)-amino-3-(4-phenoxyphenyl)-1H-pyrazolo[3,4-d]pyrimidin-1-yl]-1-piperidinyl]-2-propen-1-one], the “Rate of hydrolysis in blood” value [2] is given as “hydrolyzed most rapidly”.
